Literature values, collected in patent US20220117956A1, “LSD FOR THE TREATMENT OF ALZHEIMER'S DISEASE” (Eleusis Therapeutics US, Inc., priority 2015, published 2022).

What was measured:
[1] = formulated for immediate release; depending on dosage, tolerance, body weight and age
[2] = immediate release LSD dosed at 1 μg/kg

CCN(CC)C(=O)[C@@H]1C=C2c3cccc4[nH]cc(c34)C[C@H]2N(C)C1 [LSD, lysergic acid diethylamide]
duration of LSD's effects [1]: 6 to 12 h
apparent plasma half-life [2]: 5.1 h
time of peak plasma concentration post-dose [2]: 3 h
peak plasma concentration ([2]; at 3 hours post-dose): 5 ng/mL
